In PubChem BioAssay AID2792 (Sanford-Burnham Center for Chemical Genomics, 2010):
Activity calls are given as the source filed them. The rule behind the calls is not given here.

tested on: NF-kappaB luciferase reporter cells, PMA/ionomycin induced; experiment: NF-kB luciferase suppression after PMA/ionomycin – cell-based, PMA/ionomycin inducer, set 2, SAR follow-up (AID 2792)

IC50	SMILES
> 25 µM (inactive)	CCCCn1c(SCC(=O)c2ccccc2)nc2c1c(=O)[nH]c(=O)n2C
> 25 µM (inactive)	CC(C)Sc1nc2c(c(=O)[nH]c(=O)n2C)n1Cc1ccccc1
> 25 µM (inactive)	CCCn1c(SCCc2ccccc2)nc2c1c(=O)[nH]c(=O)n2C
> 25 µM (inactive)	Nc1nc2ccccc2n1CCOc1ccc(Cl)cc1
> 25 µM (inactive)	CC(C)n1c(SCCCc2ccccc2)nc2c1c(=O)[nH]c(=O)n2C
> 25 µM (inactive)	COCCn1c(SCCCc2ccccc2)nc2c1c(=O)[nH]c(=O)n2C
> 25 µM (inactive)	C/C(Cl)=C\Cn1c(NCCc2ccccc2)nc2c1c(=O)n(C)c(=O)n2C
> 25 µM (inactive)	C/C=C/Cn1c(SCc2ccc(Cl)cc2)nc2c1c(=O)[nH]c(=O)n2C
> 25 µM (inactive)	CCCCCn1c(SCCc2ccccc2)nc2c1c(=O)[nH]c(=O)n2C
> 25 µM (inactive)	Cn1c(=O)[nH]c(=O)c2c1nc([N+](=O)[O-])n2Cc1ccccc1
> 25 µM (inactive)	C/C=C/Cn1c(SCc2ccccc2)nc2c1c(=O)[nH]c(=O)n2C
> 25 µM (inactive)	C=CCn1c(SCCCc2ccccc2)nc2c1c(=O)[nH]c(=O)n2C
> 25 µM (inactive)	CCCCn1c(SCC(=O)Nc2nnc(CC)s2)nc2c1c(=O)n(C)c(=O)n2C
> 25 µM (inactive)	C/C=C/Cn1c(SCCCc2ccccc2)nc2c1c(=O)[nH]c(=O)n2C
